Assays:
[1] = test system: ERK1/2; experiment: ERK-KTR live-cell ERK activity reporter in SH-SY5Y, […] h; assay type: cell-based
[2] = test system: ERK1/2; experiment: ERK-KTR live-cell ERK activity reporter in HCT-116, […] h; assay type: cell-based

Compound	IC50 [1]	IC50 [2]
O=C(Nc1ccc2[nH]nc(-c3ccncc3)c2c1)[C@@H]1CCN(CC(=O)N2CCN(c3ccc(-c4ncccn4)cc3)CC2)C1 [SCH, SCH772984]	0.075 µM	–
CC(C)Nc1cc(-c2c[nH]c(C(=O)N[C@H](CO)c3cccc(Cl)c3)c2)c(Cl)cn1 [Ulix, ulixertinib]	–	0.032 µM

— paper PMC9358475 (The Journal of Biological Chemistry, 2022)
